Experiments:
Assay type in all cases: cell-based
Settings in all cases: Flip-In 293 cells stably expressing eGFP-bromodomain fusion and mCherry; compound titrated, 5 h incubation; FIG. 1, 2A, 2B
BRD2BD1, BRD2BD2 = experiment: Degradation of eGFP-fused BRD2 bromodomains, eGFP/mCherry reporter flow cytometry
Protocol: (§1) BRD2BD1, BRD2BD2, BRD3BD1, BRD3BD2, BRD4BD1, and BRD4BD2 were subcloned into mammalian pcDNA5/FRT Vector (Ampicillin and Hygromycin B resistant) modified to contain MCS-eGFP-P2A-mCherry. Stable cell lines expressing eGFP-protein fusion and mCherry reporter were generated using Flip-In 293 system. Plasmid (0.3 μg) and pOG44 (4.7 μg) DNA were preincubated in 100 μL of Opti-MEM™ I (Gibco™, Life Technologies™) media containing 0.05 mg/ml Lipofectamine® 2000 (Invitrogen™) for 20 min and added to Flip-In 293 cells containing 1.9 ml of Dulbecco's Modified Eagle's medium (DMEM) (Gibco™, Life Technologies™) per well in a 6-well plate format (Falcon, 353046). […]
(§2) Cells were seeded at 30-50% confluency in either 24, 48 or 96 well plates (3524, 3548, 3596 respectively, Costar) a day before compound treatment. The inventive compound 3 was titrated and then was incubated with cells for 5 h following trypsinization and resuspension in DMEM, transferred into 96-well plates (353910, Falcon®) and analyzed by flow cytometer (Guava® easyCyte™ HT, Millipore™). Signal from at least 3000 events per well was acquired and the eGFP and mCherry florescence monitored. Data was analyzed using FlowJo® (FlowJo®, LCC). […] The eGFP protein abundance relative to mCherry was then quantified as a ten-fold amplified ratio for each individual cell using the formula: 10× eGFP/mCherry. […]

BRD3BD1, BRD3BD2 = experiment: Degradation of eGFP-fused BRD3 bromodomains, eGFP/mCherry reporter flow cytometry
Protocol: as §1, §2

BRD4BD1, BRD4BD2 = experiment: Degradation of eGFP-fused BRD4 bromodomains, eGFP/mCherry reporter flow cytometry
Protocol: as §1, §2

SMILES: COC(=O)C[C@@H]1N=C(c2ccc(Cl)cc2)c2c(sc(C(=O)NCCCCCCCCNc3cccc(C(=O)NC4CCC(=O)NC4=O)n3)c2C)-n2c(C)nnc21 (stereo partly drawn) [compound 1, methyl 2-((6S)-4-(4-chlorophenyl)-2-((8-((6-((2,6-dioxopiperidin-3-yl)carbamoyl)pyridin-2-yl)amino)octyl)carbamoyl)-3,9-dimethyl-6H-thieno[3,2-f][1,2,4]triazolo[4,3-a][1,4]diazepin-6-yl)acetate]
- degradation of stably expressed bromodomains of BRD2 (GFP/mCherry ratio) (BRD2BD1, BRD2BD2): able to efficiently degrade
- degradation of stably expressed bromodomains of BRD3 (GFP/mCherry ratio) (BRD3BD1, BRD3BD2): able to efficiently degrade
- degradation of stably expressed bromodomains of BRD4 (GFP/mCherry ratio) (BRD4BD1, BRD4BD2): able to efficiently degrade

SMILES: COC(=O)C[C@@H]1N=C(c2ccc(Cl)cc2)c2c(sc(C(=O)NCCCCCNc3cccnc3C(=O)NC3CCC(=O)NC3=O)c2C)-n2c(C)nnc21 (stereo partly drawn) [compound 3, methyl 2-((6S)-4-(4-chlorophenyl)-2-((5-((2-((2,6-dioxopiperidin-3-yl)carbamoyl)pyridin-3-yl)amino)pentyl)carbamoyl)-3,9-dimethyl-6H-thieno[3,2-f][1,2,4]triazolo[4,3-a][1,4]diazepin-6-yl)acetate]
- degradation of stably expressed bromodomains of BRD4 (GFP/mCherry ratio) (BRD4BD1, BRD4BD2): only the first bromodomain of BRD4 is degraded

From patent publication US12060366B2, “Bispecific degraders” (DANA-FARBER CANCER INSTITUTE, INC., priority 2018, dated 2024)
